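Exposure lasted 48 hours, with cells grown in 96-well plates and compounds tested at five concentrations. At the TGI there is no net growth.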
Columns and labels:
Assay in all cases: inhibition of tumour cell growth, NCI panel, 48 h
[1] = test system: 786-0 renal
[2] = test system: ACHN renal
[3] = test system: CCRF-CEM leukemia
[4] = test system: HOP-62 NSCLC
[5] = test system: HS 578T breast
[6] = test system: K-562 leukemia
[7] = test system: MDA-N
[8] = test system: NCI-H23 lung
[9] = test system: OVCAR-4 ovarian
[10] = test system: OVCAR-5 ovarian
[11] = test system: RPMI-8226 leukemia
[12] = test system: SF-539 CNS
[13] = test system: SK-MEL-28 melanoma
[14] = test system: SK-MEL-5 melanoma
[15] = test system: SN12C renal
[16] = test system: SNB-75 CNS
[17] = test system: TK-10 renal
[18] = test system: UO-31 renal
[19] = test system: SK-OV-3 ovarian
[20] = test system: UACC-62 melanoma

SMILES	TGI [1] [µM]	TGI [2] [µM]	TGI [3] [µM]	TGI [4] [µM]	TGI [5] [µM]	TGI [6] [µM]	TGI [7] [µM]	TGI [8] [µM]	TGI [9] [µM]	TGI [10] [µM]	TGI [11] [µM]	TGI [12] [µM]	TGI [13] [µM]	TGI [14] [µM]	TGI [15] [µM]	TGI [16] [µM]	TGI [17] [µM]	TGI [18] [µM]	TGI [19] [µM]	TGI [20] [µM]
COC(=O)c1cc(C)ccc1C1CN=NC12Cc1cccc(C)c1C2=O (stereo unspecified)	> 100	> 100	99	> 100	> 100	> 100	> 100	> 100	> 100	96.4	54.9	> 100	> 100	31.9	> 100	> 100	> 100	> 100	–	–
COC(=O)C(Cc1c(C2Nc3ccccc3C2CC(NC(C)=O)C(=O)OC)[nH]c2ccccc12)NC(C)=O (stereo unspecified)	> 100	> 100	> 100	> 100	> 100	> 100	> 100	> 100	–	> 100	> 100	> 100	> 100	> 100	> 100	> 100	> 100	> 100	> 100	> 100
CCC1c2[nH]c3ccccc3c2C[C@H]2C(=O)NC(CCCCNC(=O)OC(C)(C)C)C(=O)N12 (stereo partly specified)	81.3	> 100	–	> 100	76.2	> 100	54.9	59.6	> 100	> 100	63.3	–	> 100	38.8	> 100	58.2	> 100	> 100	> 100	49.2
COC(=O)c1cnn2c1ccc1ccccc12	> 100	> 100	> 100	> 100	> 100	> 100	> 100	> 100	–	> 100	> 100	> 100	> 100	> 100	> 100	> 100	> 100	> 100	> 100	> 100
NC(=O)CCC(CCC(N)=O)(CCC(N)=O)[N+](=O)[O-]	> 100	> 100	–	–	> 100	–	> 100	> 100	–	> 100	> 100	> 100	–	> 100	> 100	> 100	> 100	> 100	> 100	> 100
CSc1ccc(-c2cc(-c3nc4ccccc4[nH]3)nc(N)c2C#N)cc1	> 100	> 100	80.1	42.1	> 100	58.6	66.1	99.5	–	75.2	77.2	86	53.2	29	> 100	57.8	99.7	–	> 100	26
CCOC(=O)c1c[nH]cc1-c1cn(S(=O)(=O)c2ccccc2)cc1C	> 100	64.3	> 100	> 100	46.2	86.4	48.4	69.8	> 100	> 100	–	53.5	38.4	> 10	59.6	63.1	> 100	> 100	> 100	33.6
Cn1c(=O)n2c(-c3ccccc3)c(-c3ccccc3)n2c1=O	> 100	> 100	> 100	> 100	> 100	> 100	> 100	> 100	> 100	> 100	–	> 100	> 100	> 100	> 100	> 100	> 100	> 100	> 100	> 100
CC1C2(C)OC(=N)C(C#N)(C(C)O2)C1(C#N)C#N (stereo unspecified)	62	> 100	51.3	–	> 100	> 100	36.1	86.8	–	> 100	–	47.1	88.6	25.8	29.8	> 100	> 100	> 100	> 100	43.8
C/C=N\n1c(C)c(C#N)c(C#N)c1N	> 100	> 100	> 100	> 100	> 100	> 100	> 100	> 100	> 100	> 100	> 100	> 100	–	> 100	> 100	> 100	> 100	> 100	> 100	> 100

Source: PubChem BioAssay (NCI)
